Assay results taken from patent US12410152B2, “Oxazole and thioazole-type cullin ring ubiquitin ligase compounds and uses thereof” (Proxygen GmbH, priority 2019, dated 2025).

Key:
UBE2M mutant KBM7 cells = test: cells; type: cell-based
Protocol: KBM7 cells with the specified genetic backgrounds were grown in IMDM supplemented with 10% FBS and 1% penicillin/streptomycin (pen/strep). AsPC1, HCT116, NCI-H446 and 293T cells were grown in DMEM 10% FBS and 1% pen/strep. MV4; 11, Jurkat and Be (2) C cells were grown in RPMI 10% FBS 1% pen/strep. KBM7, AsPC1 and HCT116 cells expressing Cas9 were generated using the plasmid Lenti_Cas9_Blasti (Addgene #52962). The lentiviral plasmid lentiGuide-Puro (Addgene #52963) was used to express sgRNAs against the genes UBE2M (in KBM7-Cas9, AsPC1-Cas9 and HCT116-Cas9 cells), UBE2G1 (in KBM7-Cas9 cells) and […] (in KBM7-Cas9 cells). The lentiviral plasmid lentiGuide-Puro-IRES-mCherry (modified from Addgene #52963) was used to express sgRNAs against CUL4A (in KBM7-Cas9 cells). The lentiviral plasmid pLenti-PGK-Hygro-DEST-UBE2M was generated by Gateway cloning (empty destination vector Addgene #19066), and used to generate UBE2M^resc KBM7 cells. […]
Following this observation, it was rationalized that novel small molecule degraders can be identified in an unbiased manner, simply by searching for compounds that lose activity in the absence of UBE2M. 2000 small molecules, mostly of unknown function/target, were tested for their antiproliferative effects in human leukemia cells (KBM7). These cells were either transduced with a control sgRNA (KBM7WT), or with an sgRNA targeting UBE2M, leading to a hypomorph (deletion of six amino acids) with a functional impairment (UBE2Mmut).
Finally, a total of structurally similar analogs was tested to unravel structure-activity relationship of the identified molecules. To that end, their anti-cancer activity was assayed in WT cells, as well as KBM7 cells deficient in genes identified in the genome-wide CRISPR screens (UBE2M, CUL4B, UBE2G1). Moreover, the compounds were also tested in AsPC1 pancreatic cancer cells (WT or UBE2Mmut), MV4; 11 and Jurkat leukemia cells, Be (2) C neuroblastoma cells, and NCI-H446 lung cancer cells (Table 3 at the end of this document)
KBM7^WT, mutant KBM7 clones (UBE2M^mut, UBE2M^resc, UBE2G1^mut CUL4A^mut, CUL4B^mut), and 3-day doxycycline pretreated KBM7^iCas9_sgDDB1 cells were seeded at a cell density of 50,000 cells/mL in 96-well plates with DMSO or drug, in triplicates. Drugs used: IC020772.1/IC020772.1X, IC021313.2/IC021313.2X, T6938051/T6938051X or THZ531. Cells were treated for 3 days, after which cell viability was assessed according to manufacturer's protocol (CellTiter Glo, Promega G7570). Survival curves and EC50 values were calculated by best-fit analysis of the log 10 drug concentration to fold change of drug-treated cells over DMSO-treated cells. All survival assays included technical triplicates per sample, per experiment.

CDK12/13 [1] = test: CDK12/13 destabilization (expression proteomics and Western blot); type: cell-based, human; conditions: KBM7 cells
Protocol: (§1) The hypomorphic phenotype of the mutated UBE2M allele in KBM7 cells (KBM7 UBE2M^mut cells) was assessed. In this regard, CRISPR/Cas9-induced mutation of UBE2M inactivated CRL activity including CRL4^CRBN and CRL2^VHL. […] Additionally, CCNK destabilization by all three compounds was validated via time-resolved immunoblots wherein CCNK degradation was evident after two hours (FIG. 19c).
(§2) PBS-washed cell pellets were lysed in 50 mM Tris pH 7.9, 8M Urea and 1% CHAPS and incubated with shaking at 4° C. for at least 30 min. 20 μg of supernatants were run and transferred for detection. Antibodies used: CUL1 (Santa Cruz Biotechnology, sc-1276), CUL2 (Sigma-Aldrich, SAB2501565-100), CUL3 (Cell Signaling Technology, 2759), CUL4A (Cell Signaling Technology, 2699S), CUL4B (Proteintech, 12916-1-AP), CUL5 (Santa Cruz Biotechnology, sc-373822), UBE2M (Santa Cruz Biotechnology, sc-390064), DDB1 (Cell Signaling Technology, 5428S), CCNK (Bethyl, A301-939A), CDK12 (Cell Signaling Technology, 11973S), CDK13 (Bethyl, A301-458A), RBM39 (1:500, Santa Cruz Biotechnology sc-376531), V5 (Cell Signaling Technology, 13202), Ubiquityl-Histone H2A (K119) (Cell Signaling, 8240-20). ACTIN (Sigma-Aldrich, A5441), VINCUL1N (Santa Cruz Biotechnology, sc-25336). Secondary antibodies anti-mouse/rabbit/goat (Jackson ImmunoResearch 115-035-003, 111-035-003 and 705-035-003).
(§3) Comparison of overall proteome-wide changes in KBM7 cells treated with IC020772.1 (2.5 μM), IC021313.2 (7 μM) or T6938051 (3.5 μM) for 5 h and 12h, using quantitative proteomics based on isobaric tagging.

CDK12/13 [2] = molecular target: T1, CDK12/13 (Homo sapiens, UniProt Q9NYV4); test: as above; type: cell-based
T1 construct: endogenous in cells; host or cells: KBM7 cells
Protocol: as §1, §2, §3

T1 sequence (Q9NYV4 whole entry): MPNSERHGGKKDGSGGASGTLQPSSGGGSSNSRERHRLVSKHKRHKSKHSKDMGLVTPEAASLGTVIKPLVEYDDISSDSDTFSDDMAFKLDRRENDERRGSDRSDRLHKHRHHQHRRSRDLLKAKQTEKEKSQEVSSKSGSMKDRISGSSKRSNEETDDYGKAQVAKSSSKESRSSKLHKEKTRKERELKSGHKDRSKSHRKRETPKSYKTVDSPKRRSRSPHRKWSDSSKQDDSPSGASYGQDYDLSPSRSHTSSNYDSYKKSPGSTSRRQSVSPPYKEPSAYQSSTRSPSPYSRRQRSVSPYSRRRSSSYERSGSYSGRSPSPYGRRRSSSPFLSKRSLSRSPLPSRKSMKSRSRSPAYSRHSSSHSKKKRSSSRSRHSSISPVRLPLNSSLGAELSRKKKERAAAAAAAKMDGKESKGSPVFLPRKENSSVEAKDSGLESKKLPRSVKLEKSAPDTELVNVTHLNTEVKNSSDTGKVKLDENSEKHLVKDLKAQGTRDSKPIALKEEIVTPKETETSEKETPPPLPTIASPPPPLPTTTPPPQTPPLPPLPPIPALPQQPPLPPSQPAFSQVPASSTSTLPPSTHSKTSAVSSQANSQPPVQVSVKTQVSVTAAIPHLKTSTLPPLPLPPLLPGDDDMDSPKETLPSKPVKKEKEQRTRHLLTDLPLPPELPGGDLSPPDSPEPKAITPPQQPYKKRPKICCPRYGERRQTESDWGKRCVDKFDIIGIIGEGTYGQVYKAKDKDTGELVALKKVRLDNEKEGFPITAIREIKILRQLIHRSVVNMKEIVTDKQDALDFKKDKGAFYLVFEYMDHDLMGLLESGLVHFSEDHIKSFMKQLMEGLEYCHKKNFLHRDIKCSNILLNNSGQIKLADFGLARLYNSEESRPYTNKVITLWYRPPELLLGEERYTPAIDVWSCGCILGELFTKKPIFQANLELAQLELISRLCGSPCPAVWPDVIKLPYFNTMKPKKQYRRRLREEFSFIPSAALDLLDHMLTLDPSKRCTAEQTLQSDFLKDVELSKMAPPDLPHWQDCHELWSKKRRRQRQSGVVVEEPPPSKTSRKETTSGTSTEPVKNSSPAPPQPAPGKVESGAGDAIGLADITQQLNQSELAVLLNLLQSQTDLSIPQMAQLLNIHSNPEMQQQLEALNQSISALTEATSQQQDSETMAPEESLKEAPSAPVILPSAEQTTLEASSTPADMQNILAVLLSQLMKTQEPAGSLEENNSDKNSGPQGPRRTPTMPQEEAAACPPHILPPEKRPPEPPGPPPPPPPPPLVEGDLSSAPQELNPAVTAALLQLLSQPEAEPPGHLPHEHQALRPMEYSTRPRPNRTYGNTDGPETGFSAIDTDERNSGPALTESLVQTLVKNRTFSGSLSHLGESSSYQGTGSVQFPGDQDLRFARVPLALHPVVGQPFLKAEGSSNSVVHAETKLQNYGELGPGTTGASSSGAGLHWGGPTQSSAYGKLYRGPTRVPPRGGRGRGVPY
T1 sequence (O75909 whole entry partner): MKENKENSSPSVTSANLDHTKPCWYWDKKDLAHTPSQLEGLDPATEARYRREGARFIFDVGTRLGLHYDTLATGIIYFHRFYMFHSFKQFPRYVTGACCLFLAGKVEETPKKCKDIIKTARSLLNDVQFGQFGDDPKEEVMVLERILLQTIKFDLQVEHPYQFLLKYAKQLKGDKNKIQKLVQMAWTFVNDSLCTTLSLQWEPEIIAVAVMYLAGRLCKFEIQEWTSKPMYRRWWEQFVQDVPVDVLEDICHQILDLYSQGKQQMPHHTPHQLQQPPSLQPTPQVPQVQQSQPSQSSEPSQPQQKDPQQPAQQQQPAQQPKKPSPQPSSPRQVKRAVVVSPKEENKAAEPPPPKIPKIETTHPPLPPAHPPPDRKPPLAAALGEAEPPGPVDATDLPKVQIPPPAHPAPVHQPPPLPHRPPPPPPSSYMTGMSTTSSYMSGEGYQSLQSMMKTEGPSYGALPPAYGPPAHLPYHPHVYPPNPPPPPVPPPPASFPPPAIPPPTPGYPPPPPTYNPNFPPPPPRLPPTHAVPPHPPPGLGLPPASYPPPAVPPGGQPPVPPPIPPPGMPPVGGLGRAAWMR
T1 sequence (Q16531 whole entry partner): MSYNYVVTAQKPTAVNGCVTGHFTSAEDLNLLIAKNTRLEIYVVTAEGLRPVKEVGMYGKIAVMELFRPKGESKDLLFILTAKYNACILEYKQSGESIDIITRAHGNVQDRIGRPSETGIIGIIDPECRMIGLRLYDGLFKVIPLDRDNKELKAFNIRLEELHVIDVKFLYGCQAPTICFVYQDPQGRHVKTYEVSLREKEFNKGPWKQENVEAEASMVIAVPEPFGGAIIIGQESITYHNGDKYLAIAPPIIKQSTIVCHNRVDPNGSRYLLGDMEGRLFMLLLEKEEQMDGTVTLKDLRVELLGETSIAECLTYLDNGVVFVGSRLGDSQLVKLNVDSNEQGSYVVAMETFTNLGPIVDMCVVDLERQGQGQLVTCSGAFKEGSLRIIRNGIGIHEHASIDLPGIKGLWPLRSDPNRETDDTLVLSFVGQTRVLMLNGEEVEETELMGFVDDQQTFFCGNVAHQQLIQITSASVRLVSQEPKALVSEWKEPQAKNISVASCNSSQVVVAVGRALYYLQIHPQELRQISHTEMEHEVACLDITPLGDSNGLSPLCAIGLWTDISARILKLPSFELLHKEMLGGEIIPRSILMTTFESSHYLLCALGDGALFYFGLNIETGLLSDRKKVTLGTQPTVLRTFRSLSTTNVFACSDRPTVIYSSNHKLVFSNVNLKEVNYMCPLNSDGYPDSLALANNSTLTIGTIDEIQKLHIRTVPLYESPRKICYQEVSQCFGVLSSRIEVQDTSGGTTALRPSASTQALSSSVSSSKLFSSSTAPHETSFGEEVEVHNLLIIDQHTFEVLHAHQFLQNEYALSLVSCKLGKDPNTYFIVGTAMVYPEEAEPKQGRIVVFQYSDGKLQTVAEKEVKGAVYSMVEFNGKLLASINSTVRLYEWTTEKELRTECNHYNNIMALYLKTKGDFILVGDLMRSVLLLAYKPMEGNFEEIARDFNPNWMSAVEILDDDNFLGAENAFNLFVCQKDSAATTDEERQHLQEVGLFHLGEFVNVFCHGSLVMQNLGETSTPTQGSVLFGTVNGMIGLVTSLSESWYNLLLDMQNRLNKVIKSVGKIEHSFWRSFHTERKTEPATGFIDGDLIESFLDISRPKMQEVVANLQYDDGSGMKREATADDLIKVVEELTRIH

SMILES | CC50 (UBE2M mutant KBM7 cells) | CDK12/13 destabilization (CDK12/13 [1]) | log2FC (IC020772.1/DMSO) (CDK12/13 [2]; CDK12 (Q9NYV4-1)) | logFC (IC021313.2/DMSO), CDK12 (Q9NYV4-1) (CDK12/13 [2]; expression proteomics, drug vs DMSO, Table 4, log2FC < −0.3)
Cc1ccc(C(=O)N2CSCC2C(=O)N=c2[nH]cc(C)s2)o1 (centres unmarked) [Compound T6938051] | 7.04 µM | milder CDK12/13 destabilization |  | 
O=C(CSc1nnc2c(n1)[nH]c1ccccc12)Nc1ccc(Cl)cn1 [IC020772.1] | 4.15 µM | milder CDK12/13 destabilization | −1.171 | 
O=C(CSc1nc2ccccc2[nH]1)Nc1ccc(Cl)cn1 [IC021313.2] | 10.7 µM | milder CDK12/13 destabilization |  | −0.897
